Reference: patent US10946051B2, “Strain of Bifidobacterium animalis subsp. lactis CECT 8145 and use thereof for the treatment and/or prevention of excess weight and obesity and associated diseases” (priority 2013, dated 2021)
Converted amounts (≈) assume the structure as drawn. Like-named read-outs stand apart in the source and are kept apart here.

Test system: strain BIF-1
Test: Antibiotic resistance profile (minimum inhibitory concentration)
Type: cell-based, Bifidobacterium animalis subsp. lactis
Description: Specifically, the production of unwanted metabolites was evaluated: lactic acid isomer production (Table 9), bile-salt deconjugation (Table 10) and biogenic amine production (Table 11), and the antibiotic resistance profile (Table 12).

[1] = Bifidobacterium animalis, BIF1; read-out: CMI (minimum inhibitory concentration of antibiotics)

| Molecule | MIC [1] | also measured |
| --- | --- | --- |
| CC1(C)S[C@@H]2[C@H](NC(=O)[C@H](N)c3ccccc3)C(=O)N2[C@H]1C(=O)O [Ampicillin] | 2 mg/L (≈ 5.72 µM) |  |
| O=C(N[C@H](CO)[C@H](O)c1ccc([N+](=O)[O-])cc1)C(Cl)Cl [Chloramphenicol] | 4 mg/L (≈ 12.4 µM) |  |
| CC[C@H]1OC(=O)[C@H](C)[C@@H](O[C@H]2C[C@@](C)(OC)[C@@H](O)[C@H](C)O2)[C@H](C)[C@@H](O[C@@H]2O[C@H](C)C[C@H](N(C)C)[C@H]2O)[C@](C)(O)C[C@@H](C)C(=O)[C@H](C)[C@@H](O)[C@]1(C)O [Erythromycin] | 0.5 mg/L (≈ 0.681 µM) |  |
| NC[C@H]1O[C@H](O[C@H]2[C@H](O)[C@@H](O[C@H]3O[C@H](CO)[C@@H](O)[C@H](N)[C@H]3O)[C@H](N)C[C@@H]2N)[C@H](O)[C@@H](O)[C@@H]1O [Kanamycin] | 128 mg/L (≈ 264 µM) |  |
| [H]/N=C(/N)N[C@H]1[C@H](O)[C@@H](O)[C@H](O[C@@H]2O[C@@H](C)[C@](O)(C=O)[C@H]2O[C@@H]2O[C@@H](CO)[C@H](O)[C@@H](O)[C@@H]2NC)[C@@H](N/C(N)=N\[H])[C@@H]1O [Streptomycin] | 128 mg/L (≈ 220 µM) |  |
| CN(C)[C@@H]1C(O)=C(C(N)=O)C(=O)[C@@]2(O)C(O)=C3C(=O)c4c(O)cccc4[C@@](C)(O)[C@H]3C[C@@H]12 [Tetracycline] | 8 mg/L (≈ 18 µM) |  |
| CN[C@H](CC(C)C)C(=O)N[C@H]1C(=O)N[C@@H](CC(N)=O)C(=O)N[C@H]2C(=O)N[C@H]3C(=O)N[C@H](C(=O)N[C@H](C(=O)O)c4cc(O)cc(O)c4-c4cc3ccc4O)[C@H](O)c3ccc(c(Cl)c3)Oc3cc2cc(c3O[C@@H]2O[C@H](CO)[C@@H](O)[C@H](O)[C@H]2O[C@H]2C[C@](C)(N)[C@H](O)[C@H](C)O2)Oc2ccc(cc2Cl)[C@H]1O [Vancomycin] |  | MIC (Bifidobacterium animalis, BIF1, read-out: CMI (minimum inhibitory concentration of antibiotics)): 1 mg/L (≈ 0.69 µM) |
| Gentamicin |  | CMI (minimum inhibitory concentration of antibiotics) (obtained for strain BIF-1): 64 mg/L |
